Our source for the IC50 values is patent US12083124B2 (Incyte Corporation, priority 2019, dated 2024).

Like-named read-outs stand apart in the source and are kept apart here.

In assay [1] the target is wild-type un-phosphorylated FGFR2 (Homo sapiens, UniProt P21802). The experiment in a line: FGFR Enzymatic Assay (FRET peptide phosphorylation), FGFR2.
Method: (§1) The inhibitor potency of the exemplified compounds was determined in an enzyme discontinuous assay that measures peptide phosphorylation using FRET measurements to detect product formation. Inhibitors were serially diluted in DMSO and a volume of 0.2 μL was transferred to the wells of a 384-well plate. […] Appropriate controls (enzyme blank and enzyme with no inhibitor) were included on the plate. […] The 10 μL/well reaction concentration of the peptide substrate was 500 nM whereas the ATP concentration was maintained near or below the ATP Km. The ATP Km values were pre-determined in a separate series of experiments. The reaction plate was incubated at 25° C. for 1 hr and the reactions were ended with the addition of 5 μL/well of quench solution (50 mM Tris, 150 mM NaCl, 0.5 mg/mL BSA, pH 7.8; 45 mM EDTA, 600 nM staurosporin, with Perkin Elmer Lance Reagents at 3.75 nM Eu-antibody PY20 and 180 nM APC-Streptavidin). The plate was allowed to equilibrate for ˜10 minutes at ambient temperature before scanning on a PheraStar plate reader (BMG Labtech) instrument.
(§2) Either GraphPad prism or XLfit was used to analyze the data. The IC50 values were derived by fitting the data to a four parameter logistic equation producing a sigmoidal dose-response curve with a variable Hill coefficient. Prism equation: Y=Bottom+(Top-Bottom)/(1+10^((Log IC50-X)*Hill slope)); XLfit equation: Y=(A+((B−A)/(1+((X/C)^D)))) where X is the logarithm of inhibitor concentration and Y is the response.
(§3) GraphPad prism3 was used to analyze the data. The IC50 values were derived by fitting the data to the equation for a sigmoidal dose-response with a variable slope. Y=Bottom+(Top-Bottom)/(1+10^((Log IC50-X)*Hill Slope)) where X is the logarithm of concentration and Y is the response.
(§4) The data in Table 1 was measured in wild-type un-phosphorylated FGFR1, FGFR2, FGFR3, and FGFR4 proteins.
For assay [2], the target named is wild-type un-phosphorylated FGFR4 (Homo sapiens, UniProt P22455). Kind of assay: FGFR Enzymatic Assay (FRET peptide phosphorylation), FGFR4.
Assay [3] has as its target wild-type un-phosphorylated FGFR1 (Homo sapiens, UniProt P11362). Kind of assay: FGFR Enzymatic Assay (FRET peptide phosphorylation), FGFR1. As to conditions: pre-incubated for 4 hours.
Method: as §1, §2, §3, §4
The target in assay [4] is wild-type un-phosphorylated FGFR3 (Homo sapiens, UniProt P22607). Kind of assay: FGFR Enzymatic Assay (FRET peptide phosphorylation), FGFR3.
Setting [5] is: read-out: FGFR1, wild-type un-phosphorylated FGFR1.
Where [6] appears, read: read-out: FGFR4, wild-type un-phosphorylated FGFR4, pre-incubated for 4 hours.
[7] abbreviates: FGFR1, wild-type un-phosphorylated FGFR1.
The mark [8] stands for this setting: read-out: FGFR2, wild-type un-phosphorylated FGFR2, pre-incubated for 4 hours.
The mark [9] stands for this setting: read-out: FGFR3, wild-type un-phosphorylated FGFR3, pre-incubated for 4 hours.

wild-type un-phosphorylated FGFR4, sequence (P22455 22-802): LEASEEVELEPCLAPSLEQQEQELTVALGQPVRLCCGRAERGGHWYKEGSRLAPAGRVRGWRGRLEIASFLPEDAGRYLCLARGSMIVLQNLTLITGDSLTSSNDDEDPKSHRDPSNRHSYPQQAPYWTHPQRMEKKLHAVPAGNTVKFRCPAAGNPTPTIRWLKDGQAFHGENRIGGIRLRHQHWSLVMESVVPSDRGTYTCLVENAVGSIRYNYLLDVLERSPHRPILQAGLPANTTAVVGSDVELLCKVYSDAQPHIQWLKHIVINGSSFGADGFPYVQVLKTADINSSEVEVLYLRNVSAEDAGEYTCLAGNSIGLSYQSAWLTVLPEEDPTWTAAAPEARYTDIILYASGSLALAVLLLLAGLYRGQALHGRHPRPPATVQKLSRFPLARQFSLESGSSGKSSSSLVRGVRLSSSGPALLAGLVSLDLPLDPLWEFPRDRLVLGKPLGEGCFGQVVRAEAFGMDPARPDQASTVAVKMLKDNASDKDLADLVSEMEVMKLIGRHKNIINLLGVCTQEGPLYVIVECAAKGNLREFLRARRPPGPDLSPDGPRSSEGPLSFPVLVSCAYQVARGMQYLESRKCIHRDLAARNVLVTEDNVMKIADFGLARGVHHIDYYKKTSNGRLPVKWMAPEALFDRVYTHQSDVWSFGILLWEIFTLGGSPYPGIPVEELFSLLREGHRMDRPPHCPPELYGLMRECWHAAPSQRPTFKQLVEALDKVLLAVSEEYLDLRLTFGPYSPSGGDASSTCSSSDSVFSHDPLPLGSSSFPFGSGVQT
wild-type un-phosphorylated FGFR2, sequence (P21802 22-821): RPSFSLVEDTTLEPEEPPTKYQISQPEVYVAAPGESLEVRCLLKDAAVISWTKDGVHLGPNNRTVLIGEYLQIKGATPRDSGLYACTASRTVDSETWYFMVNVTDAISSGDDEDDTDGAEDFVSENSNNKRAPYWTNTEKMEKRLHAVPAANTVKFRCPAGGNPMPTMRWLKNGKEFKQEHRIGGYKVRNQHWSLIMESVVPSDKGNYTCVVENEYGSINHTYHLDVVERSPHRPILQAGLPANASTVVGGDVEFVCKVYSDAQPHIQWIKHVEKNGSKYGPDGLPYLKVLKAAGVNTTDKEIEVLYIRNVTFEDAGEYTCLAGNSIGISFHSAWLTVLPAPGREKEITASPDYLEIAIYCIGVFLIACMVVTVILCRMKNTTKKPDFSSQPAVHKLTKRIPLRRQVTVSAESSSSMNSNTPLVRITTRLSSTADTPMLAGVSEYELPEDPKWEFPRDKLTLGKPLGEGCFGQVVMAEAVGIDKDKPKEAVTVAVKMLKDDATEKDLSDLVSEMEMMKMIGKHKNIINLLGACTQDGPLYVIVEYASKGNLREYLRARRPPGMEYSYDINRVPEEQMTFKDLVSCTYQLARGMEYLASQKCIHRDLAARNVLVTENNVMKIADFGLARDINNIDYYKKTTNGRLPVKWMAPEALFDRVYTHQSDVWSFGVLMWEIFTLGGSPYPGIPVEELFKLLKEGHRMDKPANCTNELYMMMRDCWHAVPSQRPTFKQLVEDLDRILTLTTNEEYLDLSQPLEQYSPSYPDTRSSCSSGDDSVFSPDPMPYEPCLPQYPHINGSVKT
wild-type un-phosphorylated FGFR3, sequence (P22607 23-806): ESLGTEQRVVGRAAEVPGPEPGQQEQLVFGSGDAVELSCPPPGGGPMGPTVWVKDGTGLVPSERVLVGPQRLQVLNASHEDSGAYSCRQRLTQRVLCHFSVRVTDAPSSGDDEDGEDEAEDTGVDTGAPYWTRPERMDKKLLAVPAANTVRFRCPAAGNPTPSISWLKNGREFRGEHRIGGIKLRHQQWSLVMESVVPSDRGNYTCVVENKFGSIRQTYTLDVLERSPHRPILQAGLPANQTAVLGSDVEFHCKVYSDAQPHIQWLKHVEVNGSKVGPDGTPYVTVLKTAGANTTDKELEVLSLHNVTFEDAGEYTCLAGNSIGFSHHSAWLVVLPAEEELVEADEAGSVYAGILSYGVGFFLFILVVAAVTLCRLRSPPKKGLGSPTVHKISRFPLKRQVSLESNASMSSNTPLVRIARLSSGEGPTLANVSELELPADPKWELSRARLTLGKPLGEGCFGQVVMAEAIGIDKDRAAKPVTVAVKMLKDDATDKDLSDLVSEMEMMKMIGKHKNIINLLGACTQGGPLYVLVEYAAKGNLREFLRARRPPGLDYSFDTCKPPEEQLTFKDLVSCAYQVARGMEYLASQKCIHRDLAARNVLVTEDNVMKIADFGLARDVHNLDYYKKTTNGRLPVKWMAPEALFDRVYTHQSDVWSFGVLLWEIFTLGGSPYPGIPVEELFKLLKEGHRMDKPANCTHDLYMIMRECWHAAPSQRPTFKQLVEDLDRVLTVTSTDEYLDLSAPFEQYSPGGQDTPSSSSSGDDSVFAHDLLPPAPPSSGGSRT
wild-type un-phosphorylated FGFR1, sequence (P11362 22-822): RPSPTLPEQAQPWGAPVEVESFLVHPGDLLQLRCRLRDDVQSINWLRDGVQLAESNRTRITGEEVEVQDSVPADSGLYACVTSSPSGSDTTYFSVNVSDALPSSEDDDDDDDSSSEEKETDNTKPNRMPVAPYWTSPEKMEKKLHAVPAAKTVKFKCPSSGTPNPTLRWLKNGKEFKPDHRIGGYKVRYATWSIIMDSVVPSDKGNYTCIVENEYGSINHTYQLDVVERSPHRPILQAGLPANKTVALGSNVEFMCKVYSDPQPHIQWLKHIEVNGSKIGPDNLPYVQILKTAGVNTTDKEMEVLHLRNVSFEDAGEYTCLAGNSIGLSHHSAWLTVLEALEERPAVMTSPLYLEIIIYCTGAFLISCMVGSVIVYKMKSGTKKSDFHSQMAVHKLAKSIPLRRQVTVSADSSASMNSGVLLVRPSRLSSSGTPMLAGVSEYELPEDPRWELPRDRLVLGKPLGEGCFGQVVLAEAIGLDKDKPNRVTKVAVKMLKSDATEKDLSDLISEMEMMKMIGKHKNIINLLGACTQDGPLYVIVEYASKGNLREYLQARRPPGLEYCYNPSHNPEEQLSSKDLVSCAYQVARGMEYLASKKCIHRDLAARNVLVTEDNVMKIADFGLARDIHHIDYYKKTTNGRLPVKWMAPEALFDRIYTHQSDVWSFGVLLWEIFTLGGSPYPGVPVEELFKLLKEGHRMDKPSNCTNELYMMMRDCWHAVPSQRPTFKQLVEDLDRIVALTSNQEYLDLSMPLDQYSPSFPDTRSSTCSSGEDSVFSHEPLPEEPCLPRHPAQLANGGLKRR

With `COc1cc2[nH]nc(-c3cnn(C4CN(C(=O)[C@@H]5COCCN5C)C4)c3)c2nc1-c1cccc2c1CCC2` [Example 128, (S)-(3-(4-(5-(2,3-Dihydro-1H-inden-4-yl)-6-methoxy-1H-pyrazolo[4,3-b]pyridin-3-yl)-1H-pyrazol-1-yl)azetidin-1-yl)(4-methylmorpholin-3-yl)methanone], the IC50 in assay [1] is under 6 nM; in assay [2] it was 40 to 100 nM; in assay [3] (setting [5]), 6 to 40 nM; in assay [4], under 6 nM.

In the case of `COc1cc2[nH]nc(-c3ccc(C4CCN(C(C)=O)C4)nc3)c2nc1-c1cccc2c1CCC2` (single isomer, unassigned) [Example 103, 1-(3-(5-(5-(2,3-Dihydro-1H-inden-4-yl)-6-methoxy-1H-pyrazolo[4,3-b]pyridin-3-yl)pyridin-2-yl)pyrrolidin-1-yl)ethan-1-one], the IC50 in assay [1] was under 6 nM; in assay [2] (setting [6]), 6 to 40 nM; in assay [3] (setting [5]), 6 to 40 nM; in assay [4], under 6 nM.

Turning to `COc1cc2[nH]nc(-c3ccc(N4CCN5C[C@@H](O)C[C@@H]5C4)nc3)c2nc1-c1cccc(C)c1C` [Example 85, (7S,8aR)-2-(5-(5-(2,3-Dimethylphenyl)-6-methoxy-1H-pyrazolo[4,3-b]pyridin-3-yl)pyridin-2-yl)octahydropyrrolo[1,2-a]pyrazin-7-ol], the IC50 is under 6 nM in assay [1], 40 to 100 nM in assay [2], 40 to 100 nM in assay [3] (setting [7]) and under 6 nM in assay [4].

Turning to `COc1cc2[nH]nc(-c3cnn(C4CN(C(=O)[C@H]5CCN5C)C4)c3)c2nc1-c1cccc2c1CCC2` [Example 122, (R)-(3-(4-(5-(2,3-Dihydro-1H-inden-4-yl)-6-methoxy-1H-pyrazolo[4,3-b]pyridin-3-yl)-1H-pyrazol-1-yl)azetidin-1-yl)(1-methylazetidin-2-yl)methanone], the IC50 in assay [1] was under 6 nM; in assay [2], 40 to 100 nM; in assay [3] (setting [5]) it was 6 to 40 nM; in assay [4] it was under 6 nM.

For the molecule `COc1cc2[nH]nc(-c3ccc(N4CCOCC4)nc3)c2nc1-c1cccc2c1CCC2` [Example 58, 4-(5-(5-(2,3-Dihydro-1H-inden-4-yl)-6-methoxy-1H-pyrazolo[4,3-b]pyridin-3-yl)pyridin-2-yl)morpholine], the IC50 in assay [1] is under 6 nM; in assay [2], 40 to 100 nM; in assay [3] (setting [7]), 40 to 100 nM; in assay [4], under 6 nM.

Consider `COc1cc2[nH]nc(-c3ccc(N4CCCC4)nc3)c2nc1-c1cccc2c1CCC2` [Example 57, 5-(2,3-Dihydro-1H-inden-4-yl)-6-methoxy-3-(6-(pyrrolidin-1-yl)pyridin-3-yl)-1H-pyrazolo[4,3-b]pyridine], for which the IC50 was under 6 nM in assay [1], over 100 nM in assay [2], over 100 nM in assay [3] (setting [7]) and under 6 nM in assay [4].

For the molecule `[2H]C1(O)Cc2cccc(-c3nc4c(-c5cnn(C)c5)n[nH]c4cc3OC)c2C1` (single isomer, unassigned) [Example 74, 4-(6-Methoxy-3-(1-methyl-1H-pyrazol-4-yl)-1H-pyrazolo[4,3-b]pyridin-5-yl) 2,3-dihydro-1H-inden-2-d-2-ol], the IC50 is under 6 nM in assay [1], over 100 nM in assay [2], 6 to 40 nM in assay [3] (setting [5]) and under 6 nM in assay [4].

For `COc1cc2[nH]nc(-c3ccc(C4CN(CCC#N)C4)nc3)c2nc1-c1cccc2c1CCC2` [Example 187, 3-(3-(5-(5-(2,3-Dihydro-1H-inden-4-yl)-6-methoxy-1H-pyrazolo[4,3-b]pyridin-3-yl)pyridin-2-yl)azetidin-1-yl)propanenitrile], the IC50 in assay [1] was under 6 nM; in assay [2] (setting [6]), 6 to 40 nM; in assay [3] (setting [5]), 6 to 40 nM; in assay [4] it was under 6 nM.

In the case of `COC(=O)N1CCC(c2ccc(-c3n[nH]c4cc(OC)c(-c5cccc6c5CCC6C#N)nc34)cn2)CC1` (stereo not drawn) [Example 180, Methyl 4-(5-(5-(1-Cyano-2,3-dihydro-1H-inden-4-yl)-6-methoxy-1H-pyrazolo[4,3-b]pyridin-3-yl)pyridin-2-yl)piperidine-1-carboxylate], the IC50 in assay [1] was under 6 nM; in assay [2] it was 40 to 100 nM; in assay [3] (setting [7]), 40 to 100 nM; in assay [4] it was under 6 nM.

With `COc1cc2[nH]nc(-c3ccc(C4CCN(C(C)=O)CC4)nc3)c2nc1-c1cccc2c1CCC2` [Example 99, 1-(4-(5-(5-(2,3-Dihydro-1H-inden-4-yl)-6-methoxy-1H-pyrazolo[4,3-b]pyridin-3-yl)pyridin-2-yl)piperidin-1-yl)ethan-1-one], the IC50 in assay [1] is under 6 nM; in assay [2] (setting [6]), 6 to 40 nM; in assay [3] (setting [5]), 6 to 40 nM; in assay [4], under 6 nM.

In the case of `COc1cc2[nH]nc(-c3ccc(C4CCN(C(=O)CO)C4)nc3)c2nc1-c1cccc2c1CCC2` (single isomer, unassigned) [Example 102, 1-(3-(5-(5-(2,3-Dihydro-1H-inden-4-yl)-6-methoxy-1H-pyrazolo[4,3-b]pyridin-3-yl)pyridin-2-yl)pyrrolidin-1-yl)-2-hydroxyethan-1-one], the IC50 was under 6 nM in assay [1] (setting [8]), 6 to 40 nM in assay [2] (setting [6]), 6 to 40 nM in assay [3] (setting [5]) and under 6 nM in assay [4] (setting [9]).

On to `COc1cc2[nH]nc(-c3cnn(C)c3)c2nc1-c1cccc(CC#N)c1C` [Example 5, 2-(3-(6-Methoxy-3-(1-methyl-1H-pyrazol-4-yl)-1H-pyrazolo[4,3-b]pyridin-5-yl)-2-methylphenyl)acetonitrile], for which the IC50 is 6 to 40 nM in assay [1] (setting [8]), over 100 nM in assay [2], over 100 nM in assay [3] (setting [7]) and under 6 nM in assay [4].

Regarding `COc1cc2[nH]nc(-c3ccc(C4CN(C(=O)CN(C)C)C4)nc3)c2nc1-c1cccc2c1CCC2` [Example 174, 1-(3-(5-(5-(2,3-Dihydro-1H-inden-4-yl)-6-methoxy-1H-pyrazolo[4,3-b]pyridin-3-yl)pyridin-2-yl)azetidin-1-yl)-2-(dimethylamino)ethan-1-one], the IC50 in assay [1] was under 6 nM; in assay [2], 40 to 100 nM; in assay [3] (setting [5]) it was 6 to 40 nM; in assay [4], under 6 nM.

As for `COc1cc2[nH]nc(-c3cnn(C4CN(C(=O)N(C)C)C4)c3)c2nc1-c1cccc(C)c1F` [Example 52, 3-(4-(5-(2-Fluoro-3-methylphenyl)-6-methoxy-1H-pyrazolo[4,3-b]pyridin-3-yl)-1H-pyrazol-1-yl)-N,N-dimethylazetidine-1-carboxamide], the IC50 in assay [1] (setting [8]) is 6 to 40 nM; in assay [2], over 100 nM; in assay [3] (setting [7]), over 100 nM; in assay [4], under 6 nM.

Take `COc1cc2[nH]nc(-c3ccc(C45CC4CN(C(=O)CO)C5)nc3)c2nc1-c1cccc2c1CCC2` (stereo not drawn) [Example 191A, 1-(1-(5-(5-(2,3-Dihydro-1H-inden-4-yl)-6-methoxy-1H-pyrazolo[4,3-b]pyridin-3-yl)pyridin-2-yl)-3-azabicyclo[3.1.0]hexan-3-yl)-2-hydroxyethan-1-one]: the IC50 is under 6 nM in assay [1], 6 to 40 nM in assay [2] (setting [6]), 6 to 40 nM in assay [3] (setting [5]) and under 6 nM in assay [4].

With `COc1cc2[nH]nc(-c3cnn(Cc4ccncc4)c3)c2nc1-c1cccc2c1CCC2` [Example 27, 5-(2,3-Dihydro-1H-inden-4-yl)-6-methoxy-3-(1-(pyridin-4-ylmethyl)-1H-pyrazol-4-yl)-1H-pyrazolo[4,3-b]pyridine], the figures for the IC50 in assay [1], in assay [2] and in assay [3] (setting [7]) were under 6 nM, 40 to 100 nM and 40 to 100 nM, respectively.

On to `COc1cc2[nH]nc(-c3ccc(C4CC(=O)N(C)C4)nc3)c2nc1-c1cccc2c1CCC2C#N` (single isomer, unassigned) [Example 75, 4-(6-Methoxy-3-(6-(1-methyl-5-oxopyrrolidin-3-yl)pyridin-3-yl)-1H-pyrazolo[4,3-b]pyridin-5-yl)-2,3-dihydro-1H-indene-1-carbonitrile], for which the IC50 in assay [1] is under 6 nM; in assay [3] (setting [5]) it was 6 to 40 nM; in assay [4], under 6 nM.

For `COc1cc2[nH]nc(-c3cnn(Cc4ncnn4C)c3)c2nc1-c1cccc(C)c1C` [Example 3, 5-(2,3-Dimethylphenyl)-6-methoxy-3-(1-((1-methyl-1H-1,2,4-triazol-5-yl)methyl)-1H-pyrazol-4-yl)-1H-pyrazolo[4,3-b]pyridine], the figures for the IC50 in assay [1], in assay [3] (setting [7]) and in assay [4] were under 6 nM, 40 to 100 nM and under 6 nM, respectively.

For the molecule `COc1cc2[nH]nc(-c3ccc(C45CC4CN(C(=O)CO)C5)nc3)c2nc1-c1cccc2c1CCC2` (single isomer, unassigned) [Example 191B, 1-(1-(5-(5-(2,3-Dihydro-1H-inden-4-yl)-6-methoxy-1H-pyrazolo[4,3-b]pyridin-3-yl)pyridin-2-yl)-3-azabicyclo[3.1.0]hexan-3-yl)-2-hydroxyethan-1-one], the IC50 in assay [1] was under 6 nM; in assay [3] (setting [5]), 6 to 40 nM; in assay [4], under 6 nM.

In the case of `COc1cc2[nH]nc(-c3ccc(C45CC4CN(CCO)C5)nc3)c2nc1-c1cccc2c1CCC2` (single isomer, unassigned) [Example 194C, 2-(1-(5-(5-(2,3-Dihydro-1H-inden-4-yl)-6-methoxy-1H-pyrazolo[4,3-b]pyridin-3-yl)pyridin-2-yl)-3-azabicyclo[3.1.0]hexan-3-yl)ethan-1-ol], the IC50 in assay [1] (setting [8]) was under 6 nM; in assay [3] (setting [5]), 6 to 40 nM; in assay [4] (setting [9]) it was under 6 nM.

Consider `COc1cc2[nH]nc(-c3ccc(C4CCC(C(=O)O)CC4)nc3)c2nc1-c1cccc(C)c1C` (stereo not drawn) [Example 79, 4-(5-(5-(2,3-Dimethylphenyl)-6-methoxy-1H-pyrazolo[4,3-b]pyridin-3-yl)pyridin-2-yl)cyclohexane-1-carboxylic acid], for which the IC50 was under 6 nM in assay [1], 40 to 100 nM in assay [3] (setting [7]) and under 6 nM in assay [4].
